This is an account of results in paper PMC6982354, “Promising New Inhibitors of Tyrosyl-DNA Phosphodiesterase I (Tdp 1) Combining 4-Arylcoumarin and Monoterpenoid Moieties as Components of Complex Antitumor Therapy” (International Journal of Molecular Sciences, 2019).

Like-named read-outs stand apart in the source and are kept apart here.

The target in data set [1] is T1, Tdp1 (Homo sapiens, UniProt Q9NUW8).
T1 construct: made in house
As to the kind of experiment: Real-time detection of Tdp1 activity (FAM/BHQ1 oligonucleotide biosensor). The class given is biochemical. The settings on record: Tdp1 inhibition, 6-point concentration response curve. As for the experimental part:
A previously designed, real-time, hexadecameric oligonucleotide biosensor with 5(6)-carboxyfluorescein (FAM) at the 5′ end and fluorophore quencher BHQ1 (Black Hole Quencher-1) at the 3′-end was used to determine the inhibitory properties of the new compounds.
Real-Time Detection of Tdp1 Activity. The Tdp1 activity measurements were carried out as described. […] Tdp1 inhibition was calculated by comparing the rate of increase in fluorescence in the presence of the compound to that of DMSO control wells. IC50 values were determined using a 6-point concentration response curve. The data were imported into the MARS Data Analysis 2.0 program (BMG LABTECH), and the slope during the linear phase (here data from 0 to 7 min) was calculated.

The test system of data set [2] is Lewis carcinoma. Put plainly: Lifespan of mice with ascites variant of Lewis carcinoma. The class given is in vivo. The conditions noted are these: for increase in lifespan: tpc + 3ba 120 mg/kg. As for the experimental part:
We then examined the effect of 3ba in combination with tpc on the lifespan of mice. C57BL/6 mice were intraperitoneally inoculated with the ascites variant of Lewis carcinoma. Group 1: control without treatment; group 2: tpc 0.5 mg/kg intraperitoneally; group 3: tpc and 3ba intraperitoneally 120 mg/kg; and group 4: 3ba 120 mg/kg only.
(§1) Lab animals. Thre-e to four-month-old male and female C57Bl/6 mice from the breeding colony of the Institute of Cytology and Genetics, SB RAS, were used in the study. The animals were kept on sawdust in plastic cages with 5–7 mice per cage, with free access to ground food (“Laboratorkorm”, Moskow, Russia) and tap water. All experiments were performed in accordance with protocols approved by the Animal Care and Use Committee of the Institute of Cytology and Genetics. Also, all experimental procedures were performed in accordance with the Directive 2010/63/EU for animal experiments.
(§2) Tumor models. The experimental tumor used was Lewis Lung Carcinoma (LLC) and Krebs-2. The animals were treated with tpc and the Tdp1 inhibitor 3ba two days after tumor transplantation. The tumor was transplanted into the muscles of the thigh by 0.2 million cells per mouse. Tpc (Sindan Pharma SRL, Romania) was administered intraperitoneally at a single dose of 0.5 mg/kg; Tdp1 inhibitor 3ba was administrated intraperitoneally at a single dose of 20, 40, or 80 mg/kg (for Krebs-2), or 120 mg/kg (for LLC) in 15% dimethyl sulfoxide (DMSO)–10% Tween-80 suspension in water (0.2 mL of suspension per mouse) simultaneously with tpc. Control mice were injected with a DMSO-Tween-80 mixture into the stomach.
(§3) Statistical analysis. The experimenter measuring and calculating the primary animal data (tumor size, lifespan) was blinded. After unblinding, the animal data were statistically processed using oneway ANOVA. Post-hoc testing was completed using Turkey’s Honestly Significant Difference (HSD). p < 0.05 was considered to be statistically significant. The statistical package […] version 12.5 was used for analysis. All results are expressed as mean ± SEM.

Data set [3] deals with T2, human Tdp1 (residues 149-608) (Homo sapiens, UniProt Q9NUW8).
T2 construct: human Tdp1 (residues 149-608); made in house; host or cells: Escherichia coli BL21 (DE3)
As to the kind of experiment: Intrinsic tryptophan fluorescence quenching binding assay. The conditions noted are these: Tdp1 10 µM, 20 mM Tris, 250 mM NaCl, pH 8; triplicate; read-out: dissociation constant (KD). An excerpt:
Derivatives of nopol were the most complex compounds to synthesize and purify. Therefore, they were excluded from further consideration. Since we previously obtained contradictory results in in vivo experiments with the myrtenol derivative 2 (unpublished data), in this work, we decided to focus on geraniol derivatives for the in vivo studies. […] In addition to the activity assay that we reported above, we wanted to confirm the interactions between compound 3ba and Tdp1 before progressing to in vivo studies. Using an intrinsic tryptophan fluorescence quenching assay that we previously applied to study the binding interactions of Tdp1 and its inhibitors, we evaluated the binding of compound 3ba to recombinant Tdp1. Clear quenching of the Tdp1 intrinsic fluorescence was observed upon the addition of 3ba (Supplementary Figure S1). […]
Binding Assay. […] Intrinsic protein fluorescence was measured using PerkinElmer EnSpire Multimode Reader. […] The excitation wavelength was 280 nm and the intrinsic fluorescence was measured at 350 nm. […] Dissociation constants (KD) were calculated using the following formula, that takes nonspecific binding into account. […]
In this formula, I indicates changes in fluorescence intensity from the titration, Imax indicates the maximum fluorescence intensity change, [Lᴛ] is the titration ligand concentration, and Ns is the non-specific term. […]

For data set [4], the system named is Krebs-2 carcinoma. Put plainly: Influence on antitumor effect of tpc, Krebs-2 ascites tumor model. Format: in vivo, mice. The settings on record: for weight of the ascitic tumor: compared to only tpc. As for the experimental part: A study of the influence of 3ba on the antitumor effect of tpc (topotecan) was performed using a murine Krebs-2 carcinoma model. An ascitic tumor model combines the advantages of in vitro and in vivo approaches in studying the cytotoxic effect of compounds, since ascitic cells grow in the context of the organism (in vivo), and the intraperitoneal administration of drug ensures its direct contact with tumor cells (in vitro). The experiments were performed using female C57BL/6 mice, which were injected intraperitoneally with 2 × 10^5 ascitic cells on day zero. The mice were divided into six groups of ten animals each.
as §1, §2, §3

Data set [5] deals with T1, Tdp1. Further details: method as in PMID 27658793. The settings on record: Tdp1 inhibition, Figure 1; cited from earlier work.
Data set [6] has as its system human cancer cells. Also noted: method as in PMID 27658793. The settings on record: compound in non-toxic doses; cited from earlier work.

T1 sequence (Q9NUW8 whole entry): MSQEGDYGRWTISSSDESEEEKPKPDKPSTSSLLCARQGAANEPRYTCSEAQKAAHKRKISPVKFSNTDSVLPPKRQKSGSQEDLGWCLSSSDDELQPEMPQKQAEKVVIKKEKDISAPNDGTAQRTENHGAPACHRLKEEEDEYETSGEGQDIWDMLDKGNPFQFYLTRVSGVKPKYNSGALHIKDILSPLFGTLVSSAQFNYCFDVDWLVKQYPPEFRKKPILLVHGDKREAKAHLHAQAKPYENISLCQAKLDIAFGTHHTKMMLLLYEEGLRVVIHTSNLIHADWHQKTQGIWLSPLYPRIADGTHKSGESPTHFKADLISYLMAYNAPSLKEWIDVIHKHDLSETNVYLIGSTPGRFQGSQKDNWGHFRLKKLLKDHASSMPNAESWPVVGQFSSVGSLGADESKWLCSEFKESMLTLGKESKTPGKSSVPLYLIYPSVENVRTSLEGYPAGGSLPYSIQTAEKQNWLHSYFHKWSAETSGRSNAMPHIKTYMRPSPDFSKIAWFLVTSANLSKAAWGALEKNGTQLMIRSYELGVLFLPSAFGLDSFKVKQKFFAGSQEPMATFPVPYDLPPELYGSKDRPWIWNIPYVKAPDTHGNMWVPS
T2 sequence (Q9NUW8 149-608): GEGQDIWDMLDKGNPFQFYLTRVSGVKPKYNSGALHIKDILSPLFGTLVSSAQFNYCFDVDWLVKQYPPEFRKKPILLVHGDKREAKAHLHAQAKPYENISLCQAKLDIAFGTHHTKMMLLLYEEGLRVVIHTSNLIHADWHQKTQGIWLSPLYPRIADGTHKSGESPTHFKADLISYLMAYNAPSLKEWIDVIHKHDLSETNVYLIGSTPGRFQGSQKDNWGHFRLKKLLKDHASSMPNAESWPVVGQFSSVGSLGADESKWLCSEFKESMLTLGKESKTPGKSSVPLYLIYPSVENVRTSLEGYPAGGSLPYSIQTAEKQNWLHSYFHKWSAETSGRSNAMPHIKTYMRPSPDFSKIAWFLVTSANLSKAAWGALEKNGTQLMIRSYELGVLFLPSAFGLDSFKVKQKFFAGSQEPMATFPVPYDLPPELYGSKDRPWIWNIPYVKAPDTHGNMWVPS

Consider `CC(C)=CCC/C(C)=C/COc1ccc2c(-c3ccc(F)cc3)cc(=O)oc2c1` [3ba, (E)-7-(3,7-Dimethylocta-2,6-dienyloxy)-4-(4-fluorophenyl)-2H-chromen-2-one], for which the midpoint of inhibition in data set [1], the IC50, lay at 0.62 µM. The prolongation of life in data set [2] (monotherapy at selected doses (tpc 0.5 mg/kg or 3ba 120 mg/kg), unreliable, p > 0.05) is recorded as 13–19%. Also, the increase in lifespan amounted to 26% in data set [2] (compared with mice receiving only tpc, p = 0.0065) and 42% in data set [2] (compared with the control group, p = 0.0002). In addition, in data set [3], the Kd came to 63 ± 11 µM. For the same compound, the “weight of the ascitic tumor / tumor growth” value in data set [4] (3ba 20 mg/kg i.p. + tpc 0.5 mg/kg i.p. (group 5)) and in data set [4] (3ba 80 mg/kg i.p. in the absence of tpc (group 6)) was “did not affect tumor growth” throughout. The “weight of the ascitic tumor” value in data set [4] (3ba 40 mg/kg i.p. + tpc 0.5 mg/kg i.p. (group 4)) is “decrease in ascites weight, although the difference between groups 2 and 4 was not significant”; in data set [4] (3ba 80 mg/kg i.p. + tpc 0.5 mg/kg i.p. (group 3)) it was “significant decrease”. Besides, the “number of tumor cells in ascites” value in data set [4] (tpc 0.5 mg/kg + 3ba 80 mg/kg i.p. (group 3), only one mouse gave ascitic fluid) turned out to be 250 mln.

On to `COc1cccc(COc2ccc3c4c(c(=O)oc3c2)CCCC4)c1` [compound 1], for which the IC50 in data set [5] is 5 µM.

Consider `CC1(C)C2CC=C(COc3ccc4c5c(c(=O)oc4c3)CCC5)C1C2` (stereo not drawn) [compound 2], for which the “effect on the cytotoxic activity of CPT” value in data set [6] is “significantly increased”.
